Starred links: 1 amine or outer side, 2 acyl side, 3 side chain; linkers in the order of their positions; H or OH if unused. Positions of bridges follow the written chain, without caps; N, C: chain ends. Non-standard residues stand in square brackets, D forms with d. Residues, ends and D or L forms follow the SMILES beside them. *: point of attachment. Arg(Nω,Nω'-propylene) = N[C@@H](CCCNC1=NCCCN1)C(=O)O; Arg(NO2) = N=C(NCCC[C@H](N)C(=O)O)N[N+](=O)[O-]; dαMeDab = C[C@](CCN[*:3])(N[*:1])C(=O)[*:2]; Arg(Me2a) = CN(C)C(=N)NCCC[C@H](N)C(=O)O; Arg(ω-nPr) = CCCNC(=N)NCCC[C@H](N)C(=O)O; Arg(Me2s) = CN=C(NC)NCCC[C@H](N)C(=O)O; Arg(Et) = CCNC(=N)NCCC[C@H](N)C(=O)O; dGly(cPent) = N[C@@H](C(=O)O)C1CCCC1; dCha = N[C@H](CC1CCCCC1)C(=O)O; dChg = N[C@@H](C(=O)O)C1CCCCC1; Isobutyryl = CC(C)C(=O)*; Abu = CC[C@H](N)C(=O)O

The first assay relates to MOLM-13 leukemia cells carrying MLL-AF9 fusion. As to the kind of experiment: cell viability assay (WST-8), MOLM-13. Conditions: Homo sapiens, MOLM-13, 96 h, read-out: MOLM-13 IC50 (μM). The assay is classed as cell-based.
For the molecule `CC[C@@H]1NC(=O)[C@H](CCCN/C(=N/C)NC)NC(=O)[C@](C)(NC(=O)C(C)C)CCNC(=O)[C@@H](CC2CCCCC2)NC1=O` [Cpd. No. 31, N-((3R,6S,9S,12R)-3-(cyclohexylmethyl)-9-(3-((E)-2,3-dimethylguanidino)propyl)-6-ethyl-12-methyl-2,5,8,11-tetraoxo-1,4,7,10-tetraazacyclotetradecan-12-yl)isobutyramide] (Isobutyryl-[dαMeDab][Arg(Me2s)][Abu][dCha]; lactam 1-C), the concentration for half-maximal inhibition (IC50) (in general, the point on the concentration scale where inhibition reaches its midpoint) is > 10 µM.
Turning to `CC[C@@H]1NC(=O)[C@H](CCCNC(=N)NC#N)NC(=O)[C@](C)(NC(=O)C(C)C)CCNC(=O)[C@@H](CC2CCCCC2)NC1=O` [Cpd. No. 33, N-((3R,6S,9S,12R)-9-(3-(3-cyanoguanidino)propyl)-3-(cyclohexylmethyl)-6-ethyl-12-methyl-2,5,8,11-tetraoxo-1,4,7,10-tetraazacyclotetradecan-12-yl)isobutyramide], the IC50 turned out to be 6.5 µM.
Consider `CC[C@@H]1NC(=O)[C@H](CCCNC(=N)NN)NC(=O)[C@](C)(NC(=O)C(C)C)CCNC(=O)[C@@H](CC2CCCCC2)NC1=O` [Cpd. No. 34, N-((3R,6S,9S,12R)-3-(cyclohexylmethyl)-6-ethyl-9-(3-(hydrazinecarboximidamido)propyl)-12-methyl-2,5,8,11-tetraoxo-1,4,7,10-tetraazacyclotetradecan-12-yl)isobutyramide], for which the IC50 was > 10 µM.
Same read-out and setting: to `CC[C@@H]1NC(=O)[C@H](CCCNC(=N)NC(=N)N)NC(=O)[C@](C)(NC(=O)C(C)C)CCNC(=O)[C@@H](CC2CCCCC2)NC1=O` [Cpd. No. 35, N-((3R,6S,9S,12R)-9-(3-(3-carbamimidoylguanidino)propyl)-3-(cyclohexylmethyl)-6-ethyl-12-methyl-2,5,8,11-tetraoxo-1,4,7,10-tetraazacyclotetradecan-12-yl)isobutyramide] belongs > 10 µM.
Turning to `CC[C@@H]1NC(=O)[C@H](CCCNC(=N)N(C)C)NC(=O)[C@](C)(NC(=O)C(C)C)CCNC(=O)[C@@H](CC2CCCCC2)NC1=O` [Cpd. No. 36, N-((3R,6S,9S,12R)-3-(cyclohexylmethyl)-9-(3-(3,3-dimethylguanidino)propyl)-6-ethyl-12-methyl-2,5,8,11-tetraoxo-1,4,7,10-tetraazacyclotetradecan-12-yl)isobutyramide] (Isobutyryl-[dαMeDab][Arg(Me2a)][Abu][dCha]; lactam 1-C), the IC50 was > 10 µM.
With `CC[C@@H]1NC(=O)[C@H](CCCNC2=NCCCN2)NC(=O)[C@](C)(NC(=O)C(C)C)CCNC(=O)[C@@H](CC2CCCCC2)NC1=O` [Cpd. No. 40, N-((3R,6S,9S,12R)-3-(cyclohexylmethyl)-6-ethyl-12-methyl-2,5,8,11-tetraoxo-9-(3-((1,4,5,6-tetrahydropyrimidin-2-yl)amino)propyl)-1,4,7,10-tetraazacyclotetradecan-12-yl)isobutyramide] (Isobutyryl-[dαMeDab][Arg(Nω,Nω'-propylene)][Abu][dCha]; lactam 1-C), the IC50 amounted to 0.88 µM.
The same measure, in the same setting: under `CC[C@@H]1NC(=O)[C@H](CCCN2CCN(C)CC2)NC(=O)[C@](C)(NC(=O)C(C)C)CCNC(=O)[C@@H](CC2CCCCC2)NC1=O` [Cpd. No. 43, N-((3R,6S,9S,12R)-3-(cyclohexylmethyl)-6-ethyl-12-methyl-9-(3-(4-methylpiperazin-1-yl)propyl)-2,5,8,11-tetraoxo-1,4,7,10-tetraazacyclotetradecan-12-yl)isobutyramide] stands > 10 µM; under `CCNC(=N)NCCC[C@@H]1NC(=O)[C@](C)(NC(=O)C(C)C)CCNC(=O)[C@@H](CC2CCCCC2)NC(=O)[C@H](CC)NC1=O` [Cpd. No. 45, N-((3R,6S,9S,12R)-3-(cyclohexylmethyl)-6-ethyl-9-(3-(3-ethylguanidino)propyl)-12-methyl-2,5,8,11-tetraoxo-1,4,7,10-tetraazacyclotetradecan-12-yl)isobutyramide] (Isobutyryl-[dαMeDab][Arg(Et)][Abu][dCha]; lactam 1-C), 3.4 µM.
On to `CCCNC(=N)NCCC[C@@H]1NC(=O)[C@](C)(NC(=O)C(C)C)CCNC(=O)[C@@H](CC2CCCCC2)NC(=O)[C@H](CC)NC1=O` [Cpd. No. 46, N-((3R,6S,9S,12R)-3-(cyclohexylmethyl)-6-ethyl-12-methyl-2,5,8,11-tetraoxo-9-(3-(3-propylguanidino)propyl)-1,4,7,10-tetraazacyclotetradecan-12-yl)isobutyramide] (Isobutyryl-[dαMeDab][Arg(ω-nPr)][Abu][dCha]; lactam 1-C), for which the IC50 is > 10 µM.
`CCCCNC(=N)NCCC[C@@H]1NC(=O)[C@](C)(NC(=O)C(C)C)CCNC(=O)[C@@H](CC2CCCCC2)NC(=O)[C@H](CC)NC1=O` [Cpd. No. 47, N-((3R,6S,9S,12R)-9-(3-(3-butylguanidino)propyl)-3-(cyclohexylmethyl)-6-ethyl-12-methyl-2,5,8,11-tetraoxo-1,4,7,10-tetraazacyclotetradecan-12-yl)isobutyramide]: the IC50 is > 10 µM.
With `CC[C@@H]1NC(=O)[C@H](CCCNC(=N)N)NC(=O)[C@](C)(NC(=O)C(C)C)CCNC(=O)[C@@H](C2CCCC2)NC1=O` [Cpd. No. 50, N-((3R,6S,9S,12R)-3-cyclopentyl-6-ethyl-9-(3-guanidinopropyl)-12-methyl-2,5,8,11-tetraoxo-1,4,7,10-tetraazacyclotetradecan-12-yl)isobutyramide] (Isobutyryl-[dαMeDab]R[Abu][dGly(cPent)]; lactam 1-C), the IC50 came to 1.19 µM.
In the case of `CC[C@@H]1NC(=O)[C@H](CCCNC(=N)N)NC(=O)[C@](C)(NC(=O)C(C)C)CCNC(=O)[C@@H](C2CCCCC2)NC1=O` [Cpd. No. 51, N-((3R,6S,9S,12R)-3-cyclohexyl-6-ethyl-9-(3-guanidinopropyl)-12-methyl-2,5,8,11-tetraoxo-1,4,7,10-tetraazacyclotetradecan-12-yl)isobutyramide] (Isobutyryl-[dαMeDab]R[Abu][dChg]; lactam 1-C), the IC50 worked out at 0.64 µM.

The assay is the same for the next values; noted with them: Homo sapiens, MOLM-13, 96 h; Table 2A; 4 days treatment; read-out: MOLM-13 IC50.
In the case of `CC[C@@H]1NC(=O)[C@H](CCCNC(=N)N[N+](=O)[O-])NC(=O)[C@](C)(NC(=O)C(C)C)CCNC(=O)[C@@H](CC2CCCCC2)NC1=O` [Cpd. No. 32, N-((3R,6S,9S,12R)-3-(cyclohexylmethyl)-6-ethyl-12-methyl-9-(3-(3-nitroguanidino)propyl)-2,5,8,11-tetraoxo-1,4,7,10-tetraazacyclotetradecan-12-yl)isobutyramide] (Isobutyryl-[dαMeDab][Arg(NO2)][Abu][dCha]; lactam 1-C), the half-maximal inhibitory concentration (IC50) is > 10 µM.
Same read-out and setting: under `CC[C@@H]1NC(=O)[C@H](CCCNC(=N)N)NC(=O)[C@](C)(NC(=O)C(C)C)CCNC(=O)[C@@H](C)NC1=O` [Cpd. No. 48, N-((3R,6S,9S,12R)-6-ethyl-9-(3-guanidinopropyl)-3,12-dimethyl-2,5,8,11-tetraoxo-1,4,7,10-tetraazacyclotetradecan-12-yl)isobutyramide] (Isobutyryl-[dαMeDab]R[Abu][dA]; lactam 1-C) stands 1.72 µM; under `CC[C@@H]1NC(=O)[C@H](CCCNC(=N)N)NC(=O)[C@](C)(NC(=O)C(C)C)CCNC(=O)[C@@H](CC(C)C)NC1=O` [Cpd. No. 49, N-((3R,6S,9S,12R)-6-ethyl-9-(3-guanidinopropyl)-3-isobutyl-12-methyl-2,5,8,11-tetraoxo-1,4,7,10-tetraazacyclotetradecan-12-yl)isobutyramide] (Isobutyryl-[dαMeDab]R[Abu][dL]; lactam 1-C), 1.88 µM.

For the origin of these results see patent US20210130401A1, “PEPTIDOMIMETIC INHIBITORS OF THE WDR5-MLL INTERACTION” (THE REGENTS OF THE UNIVERSITY OF MICHIGAN, priority 2017, published 2021).
